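Where inhibition never reached the appropriate level, the endpoint shown equals the highest concentration tested. Otherwise, values were interpolated linearly from a five-concentration, 48-hour dose response in 96-well plates. TGI: concentration producing complete growth inhibition.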
Tests used:
Experiment in all cases: DTP human tumour cell line panel, 48 h
[1] = system: 786-0 renal
[2] = system: A498 renal
[3] = system: A549 NSCLC
[4] = system: ACHN renal
[5] = system: BT-549 breast
[6] = system: CAKI-1 renal
[7] = system: CCRF-CEM leukemia
[8] = system: COLO 205 colon
[9] = system: DU-145 prostate
[10] = system: EKVX NSCLC
[11] = system: HCT-116 colon
[12] = system: HCT-15 colon
[13] = system: HL-60(TB) leukemia
[14] = system: HOP-92 NSCLC
[15] = system: HS 578T breast
[16] = system: HT29 colon
[17] = system: IGROV1 ovarian
[18] = system: K-562 leukemia
[19] = system: KM12 colon
[20] = system: M14 melanoma
[21] = system: MALME-3M melanoma
[22] = system: MDA-MB-231 breast
[23] = system: MDA-MB-435
[24] = system: MDA-N
[25] = system: MOLT-4 leukemia
[26] = system: NCI-H226 lung
[27] = system: NCI-H23 lung
[28] = system: NCI-H460 lung
[29] = system: NCI-H522 lung
[30] = system: NCI/ADR-RES ovarian
[31] = system: OVCAR-4 ovarian
[32] = system: OVCAR-5 ovarian
[33] = system: OVCAR-8 ovarian
[34] = system: PC-3 prostate
[35] = system: RPMI-8226 leukemia
[36] = system: RXF 393 renal
[37] = system: SF-268 CNS
[38] = system: SF-295 CNS
[39] = system: SF-539 CNS
[40] = system: SK-MEL-2 melanoma
[41] = system: SK-MEL-5 melanoma
[42] = system: SK-OV-3 ovarian
[43] = system: SN12C renal
[44] = system: SNB-19 CNS
[45] = system: SNB-75 CNS
[46] = system: SR leukemia
[47] = system: SW-620 colon
[48] = system: T-47D breast
[49] = system: TK-10 renal
[50] = system: U251 CNS
[51] = system: UACC-257 melanoma
[52] = system: UACC-62 melanoma
[53] = system: UO-31 renal
[54] = system: HCC-2998 colon
[55] = system: HOP-62 NSCLC
[56] = system: LOX IMVI melanoma
[57] = system: MCF7 breast
[58] = system: OVCAR-3 ovarian
[59] = system: SK-MEL-28 melanoma

Measured: TGI

CCCc1c(O)nc(Nc2nc3ccccc3[nH]2)[nH]c1=O
not listed: [54] | [55] | [56] | [57] | [58] | [59]
> 100 µM: all other assays above

CCC(C)NC1=NCC(C)S1 (configuration not stated)
not listed: [1] | [30] | [31] | [33] | [49]
> 100 µM: all other assays above
